What all share (format): cell-based
The subject of one assay is HIV-1IIIB strain. Kind of assay: HIV-1 cytoprotection assay (CEM-SS cells, MTS dye reduction). As for the experimental part:
Cytoprotection assays are commonly used for evaluating the antiviral efficacy of test compounds against a variety of viruses in different cell lines. […] Briefly, virus and cells are mixed in the presence of test compound and incubated for 6 days. […] Each assay plate contains cell control wells (cells only), virus control wells (cells plus virus), compound toxicity control wells (cells plus compound only), compound colorimetric control wells (compound only), as well as experimental wells (compound plus cells plus virus). Cytoprotection and compound cytotoxicity are assessed by MTS (CellTiter®96 Reagent, Promega, Madison Wis.) dye reduction. […] Each assay includes the HIV reverse transcriptase inhibitor AZT as a positive control.
CEM-SS cells were obtained from the NIH AIDS Research and Reference Reagent Program and are routinely passaged in T-75 flasks using standard tissue culture techniques based on the specifications provided by the supplier. On the day preceding the assay, the cells are split 1:2 to assure they are in an exponential growth phase at the time of infection. Total cell number and percent viability determinations are performed using a hemacytometer and trypan blue exclusion. […] The cells are re-suspended at 5×10^4 cells/mL in tissue culture medium and added to the drug-containing 96-well microtiter plates in a volume of 50 μl.
The viruses used for this assay are CXCR4-tropic laboratory virus strains. The most commonly used strains are HIV-1RF and HIV-1IIIB (each obtained from the NIH AIDS Research and Reference Reagent Program). For each assay, a pre-titered aliquot of virus is removed from the freezer (−80° C.) and allowed to thaw slowly to room temperature in a biological safety cabinet. The virus is re-suspended and diluted into tissue culture medium such that the amount of virus added to each well in a volume of 50 μl is the amount determined to give between 85 to 95% cell killing at 6 days post-infection.
Each plate contains cell control wells (cells only), virus control wells (cells plus virus), drug cytotoxicity wells (cells plus drug only), drug colorimetric control wells (drug only), background control wells (media only), as well as experimental wells (drug plus cells plus virus). Samples are evaluated for antiviral efficacy with triplicate measurements using 6 concentrations at half-log dilutions (12 concentrations can also be performed) in order to determine IC50 values and with duplicate measurements to determine cellular cytotoxicity, if detectable.
100% EtOH is added to the compounds of the invention such that the EtOH stock concentration is 50 mM. […] (VWR Ultrasonics Cleaner, Model #B8500A-DTH with “Sonics Power” set to HI); e) The 1:2 serial dilutions of the 1 mM 10× stock solution with FBS/2% EtOH are prepared such that the concentrations of the 10× stock solutions are 1 mM, 0.5 mM, 0.25 mM, etc., in FBS with 2% EtOH. Medium is aspirated off cells and replaced with serum free medium.
On the technique in general: Tetrazolium dyes change colour on reduction, which living cells bring about.

In the next assay the target is NF-κB. Description: NF-κB luciferase reporter assay in RAW 264.7 macrophages. Particulars: for IC50: Mus musculus. The procedure:
RAW 264.7 cells stably expressing a 3×NFkB response element-drive luciferase reporter were seeded into 96 well plates in sera-free medium (Optimem) 18 hours prior to compound application. Compounds of the invention were prepared by first making 100 mM stock solutions in EtOH. […] Cells were then stimulated with 200 ng/ml LPS or vehicle control for 3 hours in the presence of the compounds of the invention. A set of six vehicles was left unstimulated with LPS in order to measure the assay floor. AlamarBlue viability dye (Invitrogen) was added to cells simultaneously with the delivery of LPS (final AlamarBlue concentration of 10%). After the 3 h incubation period with LPS, cell viability was measured by reading fluorescence (excitation 550 nm, emission 595 nm) with a Perkin Elmer Victor V plate reader. Then cell media was aspirated from each well. Luciferase signal was then developed by addition of the Britelite Plus reagent (Perkin Elmer). Luciferase activity was measured with the Perkin Elmer Victor V plate reader. NE-κB activity was expressed as a percent of the vehicle control wells (stimulated with LPS). Compounds were tested at 6 dose point titrations in triplicate to determine IC50 values.
(In general: Reporter assays use an easily measured gene product as a stand-in for the process of interest.)

In a further assay the test system is HBV. Kind of assay: HBV assay, extracellular HBV DNA in HepG2 2.2.15 cells. To be noted: Hepatitis B virus, read-out: EC90 against HBV. The procedure: Extracellular HBV DNA analysis was carried out using the protocols outlined in Innaimo et al, Antimicrobial Agents and Chemotherapy 1997, 41, p. 1444-1448 and Korba and Milman Antiviral Research 1991, 15, p. 217-228. HepG2 2.2.15 cells were maintained in RPMI 1640 supplemented with 2 mM L-glutamine, 50 U of penicillin per mL, 50 μg of streptomycin per mL, 500 μg of G418 per mL, and 5% fetal bovine serum. Stock solutions of the test compounds were prepared according to the procedures outlined in example 3. HepG2 2.2.15 cells were plated at a density of 5×10^5 cells per well on 12-well Biocoat collagen-coated plates (Collaborative Biosciences, Beford, Mass.) and were maintained in a confluent state for 2 to 3 days before being overlaid with 1 mL of medium spiked with the antiviral compound. Compound-containing medium was changed daily for 9 days. On day 10, the media were collected and clarified by pelleting the cellular debris with a 5-min microcentrifuge spin at 16,000×g. Supernatants were processed for HBV DNA by the alkaline lysis method. Released HBV DNA was immobilized on a Magnagraph nylon membrane (Micron Separatations, Inc., Westborough, Mass.) by sing a dot blot manifold full-length HBV genome template excised from plasmid pTHBV-1 (American Type Culture Collection, Rockville, Md.) and ^32P-radiolabeled to a specific activity of 2×10^9 cpm/μg by using a random primer kit (Life Technologies, Grand Island, N.Y.). Quantification was performed on a Storm 860 phosphorimager (Molecular Dynamics, Sunnyvale, Calif.). All drug concentrations were tested in duplicate or triplicate, with antiviral effects being scored as reductions in the amount of HBV DNA present in the medium relative to that in untreated controls after the 10-day treatment period. Using the assay, the following EC90 values against HBV were obtained: […]

[1] abbreviates: RAW 264.7 reporter cells, 200 ng/ml LPS, 3 hours.
Where [2] appears, read: CEM-SS cells, HIV-1 IIIB strain, 6 days, MTS.
The mark [3] stands for this setting: RAW264.7, RAW 264.7 reporter cells, 200 ng/ml LPS, 3 hours, read-out: NF-kB inhibitory activity IC50.
The mark [4] stands for this setting: RAW264.7, 3 h, read-out: NF-kB inhibitory activity IC50 μM.
[5] abbreviates: Human immunodeficiency virus 1, IIIB, CEM-SS, 144 h, read-out: IC50 HIV-1IIIB strain (nM).

Structures are written as SMILES. Where two headings read alike, the source gives them in different places. A value given as a limit tells only on which side of the number the result lay.

The term IC50 denotes the midpoint of a concentration-inhibition curve. Consider `CC/C=C\C/C=C\C/C=C\C/C=C\C/C=C\C/C=C\CCC(=O)NCCNC(=O)OC[C@H]1O[C@H](n2cc(C)c(=O)[nH]c2=O)C[C@@H]1N=[N+]=[N-]` [Example V-5, ((2S,3S,5S)-3-azido-5-(5-methyl-2,4-dioxo-3,4-dihydropyrimidin-1(2H)-yl)tetrahydrofuran-2-yl)methyl (2-((4Z,7Z,10Z,13Z,16Z,19Z)-docosa-4,7,10,13,16,19-hexaenamido)ethyl)carbamate], for which, in the assay on HIV-1IIIB strain (Human immunodeficiency virus 1, 144 h, CEM-SS cells, HIV-1 IIIB strain, 6 days, MTS, read-out: IC50 HIV-1IIIB strain), the IC50 is above 100 nM. At NF-κB (setting [1]), the “NF-kB inhibitory activity IC50 μM” value is “+ +”.

As usually defined, the EC90 is the point of the concentration-response curve where the effect stands at 90%. As to `CC/C=C\C/C=C\C/C=C\C/C=C\C/C=C\C/C=C\CCC(=O)Nc1ccn([C@@H]2CS[C@H](CO)O2)c(=O)n1` [Example V-18, (4Z,7Z,10Z,13Z,16Z,19Z)—N-(1-((2R,5S)-2-(hydroxymethyl)-1,3-oxathiolan-5-yl)-2-oxo-1,2-dihydropyrimidin-4-yl)docosa-4,7,10,13,16,19-hexaenamide], the “IC50 HIV-1IIIB strain (nM)” value in the assay on HIV-1IIIB strain (setting [2]) is reported as “+ ++”. In addition, the EC90 in the assay with HBV (240 h, HepG2 2.2.15 cells, extracellular HBV DNA, 10-day treatment) was 81 nM. Further, in the assay on NF-κB (setting [3]), the 50% inhibitory concentration (IC50) was above 200 µM.

In the case of `CC/C=C\C/C=C\C/C=C\C/C=C\C/C=C\C/C=C\CCC(=O)NCCNC(=O)OC[C@@H]1O[C@H](n2ccc(N)nc2=O)CS1` [Example V-21, ((2R,5S)-5-(4-amino-2-oxopyrimidin-1(2H)-yl)-1,3-oxathiolan-2-yl)methyl (2-((4Z,7Z,10Z,13Z,16Z,19Z)-docosa-4,7,10,13,16,19-hexaenamido)ethyl)carbamate], the “IC50 HIV-1IIIB strain (nM)” value with HIV-1IIIB strain (setting [2]) is listed as “+ ++”. In the assay with HBV (HepG2 2.2.15, 240 h), the EC90 came out at 79 nM. In the assay with NF-κB (setting [4]), the IC50 was 50 to 200 µM.

Take `CC/C=C\C/C=C\C/C=C\C/C=C\C/C=C\C/C=C\CCC(=O)NCCNP(=O)(OC[C@H]1O[C@H](n2cc(C)c(=O)[nH]c2=O)C[C@@H]1N=[N+]=[N-])Oc1ccccc1` (stereo partly drawn) [II-25, ((2S,3S,5S)-3-azido-5-(5-methyl-2,4-dioxo-3,4-dihydropyrimidin-1(2H)-yl)tetrahydrofuran-2-yl)methyl phenyl (2-((4Z,7Z,10Z,13Z,16Z,19Z)-docosa-4,7,10,13,16,19-hexaenamido)ethyl)phosphoramidate]: the 50% inhibitory concentration (IC50) with HIV-1IIIB strain (setting [5]) was below 100 nM. On NF-κB (setting [1]), the “NF-kB inhibitory activity IC50 μM” value is listed as “+ +”.

As for `CC/C=C\C/C=C\C/C=C\C/C=C\C/C=C\CCCC(=O)NCCNP(=O)(OC)OC[C@H]1O[C@H](n2cc(C)c(=O)[nH]c2=O)C[C@@H]1N=[N+]=[N-]` (stereo partly drawn) [II-30, ((2S,3S,5S)-3-azido-5-(5-methyl-2,4-dioxo-3,4-dihydropyrimidin-1(2H)-yl)tetrahydrofuran-2-yl)methyl methyl (2-((5Z,8Z,11Z,14Z,17Z)-icosa-5,8,11,14,17-pentaenamido)ethyl)phosphoramidate], the IC50 in the assay on HIV-1IIIB strain (setting [5]) was above 100 nM. Also, the “NF-kB inhibitory activity IC50 μM” value at NF-κB (setting [1]) is on record as “+ +”.

Turning to `C=C1[C@H](COP(=O)(NCCNC(=O)CC/C=C\C/C=C\C/C=C\C/C=C\C/C=C\C/C=C\CC)OC)[C@@H](O)C[C@@H]1n1cnc2c(=O)nc(N)[nH]c21` (stereo partly drawn) [II-46, ((1R,3S,5S)-3-(2-amino-6-oxo-3H-purin-9(6H)-yl)-5-hydroxy-2-methylenecyclopentyl)methyl methyl (2-((4Z,7Z,10Z,13Z,16Z,19Z)-docosa-4,7,10,13,16,19-hexaenamido)ethyl)phosphoramidate], the EC90 in the assay on HBV (HepG2 2.2.15, 240 h) stood at 7 nM.

With `C=C1[C@H](COP(=O)(NCCNC(=O)CCC/C=C\C/C=C\C/C=C\C/C=C\C/C=C\CC)OC)[C@@H](O)C[C@@H]1n1cnc2c(=O)nc(N)[nH]c21` (stereo partly drawn) [II-48, ((1R,3S,5S)-3-(2-amino-6-oxo-3H-purin-9(6H)-yl)-5-hydroxy-2-methylenecyclopentyl)methyl methyl (2-((5Z,8Z,11Z,14Z,17Z)-icosa-5,8,11,14,17-pentaenamido)ethyl)phosphoramidate], the EC90 with HBV (HepG2 2.2.15, 240 h) turned out to be 7 nM. The IC50 with NF-κB (setting [4]) was 50 to 200 µM.

For the compound `CC/C=C\C/C=C\C/C=C\C/C=C\C/C=C\C/C=C\CCC(=O)NCCNP(=O)(OC[C@@H]1O[C@H](n2ccc(N)nc2=O)CS1)Oc1ccccc1` (stereo partly drawn) [II-67, ((2R,5S)-5-(4-amino-2-oxopyrimidin-1(2H)-yl)-1,3-oxathiolan-2-yl)methyl phenyl (2-((4Z,7Z,10Z,13Z,16Z,19Z)-docosa-4,7,10,13,16,19-hexaenamido)ethyl)phosphoramidate], the IC50 in the assay with HIV-1IIIB strain (setting [5]) was below 100 nM. For the same compound, the EC90 with HBV (HepG2 2.2.15, 240 h) stood at 75 nM. Moreover, the “NF-kB inhibitory activity IC50 μM” value on NF-κB (setting [1]) was “+ +”.

For the compound `CC/C=C\C/C=C\C/C=C\C/C=C\C/C=C\CCCC(=O)NCCNP(=O)(OC[C@@H]1OC(n2ccc(N)nc2=O)CS1)Oc1ccccc1` (stereo partly drawn) [II-68], the EC90 with HBV (HepG2 2.2.15, 240 h) turned out to be 82 nM. In addition, the IC50 in the assay with NF-κB (setting [4]) was in the range of 50 to 200 µM.

For `CC/C=C\C/C=C\C/C=C\C/C=C\C/C=C\C/C=C\CCC(=O)Nc1ccc(S(=O)(=O)N(CC(C)C)C[C@@H](O)[C@H](Cc2ccccc2)NC(=O)O[C@H]2CO[C@H]3OCC[C@H]32)cc1` [VII-1, (3R,3aS,6aR)-hexahydrofuro[2,3-b]furan-3-yl ((2S,3R)-4-(4-((4Z,7Z,10Z,13Z,16Z,19Z)-docosa-4,7,10,13,16,19-hexaenamido)-N-isobutylphenylsulfonamido)-3-hydroxy-1-phenylbutan-2-yl)carbamate], the “IC50 HIV-1IIIB strain (nM)” value with HIV-1IIIB strain (setting [2]) is recorded as “+ ++”. Besides, the IC50 in the assay with NF-κB (setting [4]) was 50 to 200 µM.

Turning to `CC/C=C\C/C=C\C/C=C\C/C=C\C/C=C\CCCC(=O)Nc1ccc(S(=O)(=O)N(CC(C)C)C[C@@H](O)[C@H](Cc2ccccc2)NC(=O)O[C@H]2CO[C@H]3OCC[C@H]32)cc1` [VII-2, (3R,3aS,6aR)-hexahydrofuro[2,3-b]furan-3-yl((2S,3R)-3-hydroxy-4-(4-((5Z,8Z,11Z,14Z,17Z)-icosa-5,8,11,14,17-pentaenamido)-N-isobutylphenylsulfonamido)-1-phenylbutan-2-yl)carbamate], the “IC50 HIV-1IIIB strain (nM)” value with HIV-1IIIB strain (setting [2]) is “+ ++”. Moreover, the IC50 in the assay on NF-κB (setting [3]) was below 50 µM.

Source of the values: US20140288025A1, “FATTY ACID ANTIVIRAL CONJUGATES AND THEIR USES” (Catabasis Pharmaceuticals, Inc., priority 2013, published 2014).
